Experimental data taken from ChEMBL document CHEMBL1201862, “PubChem BioAssay data set” (2004).
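Grown in 96-well plates, cells were treated for 48 hours with each compound at five concentrations. Insufficient inhibition: endpoint recorded as highest concentration tested. GI50 marks 50% less growth.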 Calls of active or inactive are those of the source. Rule as the data show it: active = GI50 up to about 1.1 µM and inactive = higher.

What was measured:
Test in all cases: NCI anticancer screen, dose series, 48 h
786-0 = system: 786-0
A498 = system: A498
A549 = system: A549
ACHN = system: ACHN
BT-549 = system: BT-549
CAKI-1 = system: CAKI-1
CCRF-CEM = system: CCRF-CEM
EKVX = system: EKVX
HCC 2998 = system: HCC 2998
HCT-116 = system: HCT-116
HCT-15 = system: HCT-15
HL-60 = system: HL-60
HOP-62 = system: HOP-62
HOP-92 = system: HOP-92
HT-29 = system: HT-29
Hs-578T = system: Hs-578T
IGROV-1 = system: IGROV-1
K562 = system: K562
KM12 = system: KM12
LOX IMVI = system: LOX IMVI
M14 = system: M14
MCF7 = system: MCF7
MDA-MB-231 = system: MDA-MB-231
MDA-MB-435 = system: MDA-MB-435
MOLT-4 = system: MOLT-4
Malme-3M = system: Malme-3M
NCI-H226 = system: NCI-H226
NCI-H23 = system: NCI-H23
NCI-H460 = system: NCI-H460
NCI-H522 = system: NCI-H522
NCI/ADR-RES = system: NCI/ADR-RES
OVCAR-3 = system: OVCAR-3
OVCAR-4 = system: OVCAR-4
OVCAR-5 = system: OVCAR-5
OVCAR-8 = system: OVCAR-8
PC-3 = system: PC-3
RPMI-8226 = system: RPMI-8226
RXF 393 = system: RXF 393
SF-268 = system: SF-268
SF-295 = system: SF-295
SF-539 = system: SF-539
SK-MEL-28 = system: SK-MEL-28
SK-MEL-2 = system: SK-MEL-2
SK-MEL-5 = system: SK-MEL-5
SK-OV-3 = system: SK-OV-3
SN12C = system: SN12C
SNB-75 = system: SNB-75
SR = system: SR
SW-620 = system: SW-620
T47D = system: T47D
TK-10 = system: TK-10
U-251 = system: U-251
UACC-257 = system: UACC-257
UACC-62 = system: UACC-62
UO-31 = system: UO-31
SNB-19 = system: SNB-19

COC(=O)C(/C(=N/N)C(=O)Nc1ccc(C)c(C)c1)c1nc2ccc(Cl)cc2nc1O (stereo not given)
GI50 (786-0): > 100 µM (inactive) | GI50 (A498): > 100 µM (inactive) | GI50 (A549): > 100 µM (inactive) | GI50 (ACHN): 40.3 µM (inactive) | GI50 (BT-549): > 100 µM (inactive) | GI50 (CAKI-1): > 100 µM (inactive) | GI50 (CCRF-CEM): > 100 µM (inactive) | GI50 (EKVX): 74.5 µM (inactive) | GI50 (HCC 2998): > 100 µM (inactive) | GI50 (HCT-116): > 100 µM (inactive) | GI50 (HCT-15): > 100 µM | GI50 (HL-60): > 100 µM (inactive) | GI50 (HOP-62): > 100 µM (inactive) | GI50 (HOP-92): > 100 µM (inactive) | GI50 (HT-29): > 100 µM (inactive) | GI50 (Hs-578T): > 100 µM (inactive) | GI50 (IGROV-1): 49.3 µM (inactive) | GI50 (K562): > 100 µM (inactive) | GI50 (KM12): > 100 µM (inactive) | GI50 (LOX IMVI): > 100 µM (inactive) | GI50 (M14): > 100 µM (inactive) | GI50 (MCF7): > 100 µM (inactive) | GI50 (MDA-MB-231): > 100 µM (inactive) | GI50 (MDA-MB-435): > 100 µM (inactive) | GI50 (MOLT-4): > 100 µM (inactive) | GI50 (Malme-3M): > 100 µM (inactive) | GI50 (NCI-H226): > 100 µM (inactive) | GI50 (NCI-H23): > 100 µM (inactive) | GI50 (NCI-H460): > 100 µM (inactive) | GI50 (NCI-H522): > 100 µM (inactive) | GI50 (NCI/ADR-RES): > 100 µM (inactive) | GI50 (OVCAR-3): > 100 µM (inactive) | GI50 (OVCAR-4): > 100 µM (inactive) | GI50 (OVCAR-5): > 100 µM (inactive) | GI50 (OVCAR-8): > 100 µM (inactive) | GI50 (PC-3): > 100 µM (inactive) | GI50 (RPMI-8226): > 100 µM (inactive) | GI50 (RXF 393): > 100 µM (inactive) | GI50 (SF-268): > 100 µM (inactive) | GI50 (SF-295): > 100 µM (inactive) | GI50 (SF-539): > 100 µM (inactive) | GI50 (SK-MEL-28): > 100 µM (inactive) | GI50 (SK-MEL-2): > 100 µM (inactive) | GI50 (SK-MEL-5): > 100 µM (inactive) | GI50 (SK-OV-3): > 100 µM (inactive) | GI50 (SN12C): > 100 µM (inactive) | GI50 (SNB-75): > 100 µM (inactive) | GI50 (SR): > 100 µM (inactive) | GI50 (SW-620): > 100 µM (inactive) | GI50 (T47D): > 100 µM (inactive) | GI50 (TK-10): > 100 µM (inactive) | GI50 (U-251): > 100 µM (inactive) | GI50 (UACC-257): > 100 µM (inactive) | GI50 (UACC-62): > 100 µM (inactive) | GI50 (UO-31): 28.4 µM (inactive)

Nc1nc(N)c2cc(S(=O)(=O)c3ccc4ccccc4c3)ccc2n1
GI50 (786-0): 3.66 µM (inactive) | GI50 (A549): 0.718 µM (active) | GI50 (ACHN): 2.74 µM (inactive) | GI50 (BT-549): 11.7 µM (inactive) | GI50 (CAKI-1): 4.83 µM (inactive) | GI50 (EKVX): 8.13 µM (inactive) | GI50 (HCC 2998): > 100 µM (inactive) | GI50 (HCT-116): 0.495 µM (active) | GI50 (HCT-15): 3.93 µM | GI50 (HL-60): > 100 µM (inactive) | GI50 (HOP-62): 4.63 µM (inactive) | GI50 (HOP-92): 5.86 µM (inactive) | GI50 (Hs-578T): 8.39 µM (inactive) | GI50 (IGROV-1): 1.5 µM (inactive) | GI50 (K562): 0.541 µM (active) | GI50 (KM12): 9.95 µM (inactive) | GI50 (LOX IMVI): 0.766 µM (active) | GI50 (MDA-MB-231): 1.62 µM (inactive) | GI50 (MDA-MB-435): 3.3 µM (inactive) | GI50 (Malme-3M): 14.4 µM (inactive) | GI50 (NCI-H23): 4.27 µM (inactive) | GI50 (NCI-H460): 0.573 µM (active) | GI50 (NCI-H522): 3.9 µM (inactive) | GI50 (NCI/ADR-RES): 70.5 µM (inactive) | GI50 (OVCAR-3): > 100 µM (inactive) | GI50 (OVCAR-5): > 100 µM (inactive) | GI50 (OVCAR-8): 1.34 µM (inactive) | GI50 (PC-3): 1.58 µM (inactive) | GI50 (RPMI-8226): > 100 µM (inactive) | GI50 (SF-268): 5.22 µM (inactive) | GI50 (SF-295): 1.55 µM (inactive) | GI50 (SF-539): 3.33 µM (inactive) | GI50 (SK-MEL-28): > 100 µM (inactive) | GI50 (SK-MEL-2): 43.4 µM (inactive) | GI50 (SK-MEL-5): 11.9 µM (inactive) | GI50 (SK-OV-3): > 100 µM (inactive) | GI50 (SN12C): 7.69 µM (inactive) | GI50 (SNB-19): 6.03 µM (inactive) | GI50 (SNB-75): 2.86 µM (inactive) | GI50 (T47D): 1.46 µM (inactive) | GI50 (TK-10): > 100 µM (inactive) | GI50 (U-251): 3.24 µM (inactive) | GI50 (UACC-257): 0.142 µM (active) | GI50 (UACC-62): 2.57 µM (inactive) | GI50 (UO-31): 2.04 µM (inactive)
